US9072800B2, “Hand sanitizer” (TRISTEL PLC, priority 2009, dated 2015)

Assay: Flash point by Tag Closed Cup
Type: physicochemical
Text: MMB also has the benefit over ethanol that it is substantially non-flammable. […] MMB is considered to be extremely safe, having no R and S phrases and Occupational Exposure Limit.

flash point: 68 °C
Structure (SMILES): COC(C)(C)CCO [MMB, 3-methoxy-3-methylbutan-1-ol]
